The record followed here is patent US20240409573A1, “CALICHEAMICIN DERIVATIVES AND ANTIBODY DRUG CONJUGATES THEREOF” (priority 2017, published 2024).

A value given as a limit tells only on which side of the number the result lay.

For test [1], the system named is N87 (gastric cancer) cells, Her2-target expressing. As to the kind of experiment: In vitro cell assay, cell viability by MTS, N87. The format is cell-based. As to conditions: 96 h, read-out: Average IC50, N87. The method, then: (§1) Her2-Target expressing (BT474 (breast cancer), N87 (gastric cancer), MDA-MB-361-DYT2 (breast cancer)) or Her2-non-expressing (MDA-MB-468, HT29) cells, or 0033-target expressing HL60, HEL92.1.7, NB4, TF-1 or 0033-non-expressing (Raji) cells were seeded in 96-well cell culture plates for 24 hours before treatment. Cells were treated with 3-fold serially diluted antibody-drug conjugates or free compounds (i.e., no antibody conjugated to the drug) in duplicate at 10 concentrations. Cell viability was determined by CellTiter 96® AQueous One Solution Cell Proliferation MTS Assay (Promega, Madison WI) 96 hours after treatment. Relative cell viability was determined as percentage of untreated control. IC50 values were calculated using a four parameter logistic model #203 with XLfit v4.2 (IDBS, Guildford, Surry, UK). Results are shown below in Table 3 (for payloads), Table 4 (for Herceptin conjugates), and Table 5 (for CD33 conjugates).

In test [2] the test system is HEL92.1.7 cells, CD33-target expressing. The test is described as follows: In vitro cell assay, cell viability by MTS, HEL92.1.7. The class given is cell-based. As to conditions: Homo sapiens, HEL 92.1.7, 96 h, read-out: Average IC50, HEL92.1.7. Here is the method:
as §1

In test [3] the test system is HT29 cells, Her2-non-expressing. The test is described as follows: In vitro cell assay, cell viability by MTS, HT29. The format is cell-based. As to conditions: Homo sapiens, HT-29, 96 h, read-out: Average IC50, HT29. Here is the method: as §1
The test system of test [4] is TF-1 cells, CD33-target expressing. The test is described as follows: In vitro cell assay, cell viability by MTS, TF-1. As to conditions: Homo sapiens, TF-1, 96 h, read-out: Average IC50, TF-1. The class given is cell-based. Here is the method: as §1
Test [5] concerns MDA-MB-361-DYT2 (breast cancer) cells, Her2-target expressing. The test is described as follows: In vitro cell assay, cell viability by MTS, MDA-MB-361-DYT2. The class given is cell-based. As to conditions: 96 h, read-out: Average IC50, MDA-MB-361-DYT2. Here is the method:
as §1

For test [6], the system named is Raji cells, CD33-non-expressing. The test is described as follows: In vitro cell assay, cell viability by MTS, Raji. As to conditions: Homo sapiens, 96 h, read-out: Average IC50, Raji. The class given is cell-based. Here is the method: as §1
The test system of test [7] is HL60 cells, CD33-target expressing. The test is described as follows: In vitro cell assay, cell viability by MTS, HL60. The format is cell-based. As to conditions: Homo sapiens, HL-60, 96 h, read-out: Average IC50, HL-60. The method, then: as §1
Test [8] relates to NB4 cells, CD33-target expressing. The test is described as follows: In vitro cell assay, cell viability by MTS, NB4. The format is cell-based. As to conditions: Homo sapiens, NB-4, 96 h, read-out: Average IC50, NB4. The method, then:
as §1

In test [9] the test system is TF-1 AML xenograft tumors. The test is described as follows: TF-1 AML subcutaneous xenograft model. The format is in vivo, female Athymic nu/nu mice. As to conditions: Mylotarg dosed at 1 mg/kg Q4dx4 intravenously. The method, then:
The cyno-human chimeric anti 0033 antibody, 11A1, was conjugated to various linker-payloads (as per 0033 conjugates in Examples 50-110) and tested in Acute Myeloid Leukemia (AML) xenograft models. For each model described below the first dose was given on Day 0. The tumors were measured at least once a week and their volume was calculated with the formula: tumor volume (mm^3)=0.5×(tumor width^2)(tumor length). The mean tumor volumes (±S.E.M.) for each treatment group were calculated having a maximum of 10 animals and a minimum of 4 animals to be included. All animal experiments were conducted in a facility accredited by the Association for Assessment of Laboratory Animal Care under Institutional Animal Care and Use Committee guidelines and appropriate animal research approval.
The effects of anti-CD33 ADCs were examined in immunodeficient mice on the in vivo growth of human tumors. For subcutaneous (sc) AML models, 10×10^6 TF-1 cells were implanted subcutaneously in the flank of female Athymic nu/nu mice. When the tumors reached an average volume of 300 mm^3, animals were staged to ensure uniformity of the tumor size among various treatment groups. The TF-1 AML sc xenograft model was dosed intravenously one time every four days for four cycles (Q4dx4) with PBS vehicle or humanized anti-CD33 […] at the doses provided in Tables 11-13.

Regarding `CCN[C@H]1CO[C@@H](O[C@H]2[C@H](O[C@H]3C#C/C=C\C#C[C@]4(O)CC(=O)C(NC(=O)OC)=C3/C4=C\CSSc3ccc(C(=O)O)cc3)O[C@H](C)[C@@H](NO[C@H]3C[C@H](O)[C@H](SC(=O)c4c(C)c(I)c(O[C@@H]5O[C@@H](C)[C@H](O)[C@@H](OC)[C@H]5O)c(OC)c4OC)[C@@H](C)O3)[C@@H]2O)C[C@@H]1OC` [Example P13], the IC50 (as a rule, the concentration that gives 50% inhibition) was 0.536 nM in test [1]; 0.039 nM in [2]; 0.792 nM in test [3]; 0.331 nM in test [4]; 0.982 nM in [5]; 0.022 nM in [6]. In addition, the IC50 in test [7] was 0.044 nM; in test [8], 0.023 nM.
With “Mylotarg®: "anti-CD33 humanized monoclonal antibody conjugated to calicheamicin for the treatment of acute myelogenous leukemia"”, the “efficacy in TF-1 AML xenografts” value in [9] is “ineffective”.
With `CCN[C@H]1CO[C@@H](O[C@H]2[C@H](O[C@H]3C#C/C=C\C#C[C@]4(O)CC(=O)C(NC(=O)OC)=C3/C4=C\CSSc3ccccc3)O[C@H](C)[C@@H](NO[C@H]3C[C@H](O)[C@H](SC(=O)c4c(C)c(I)c(O[C@@H]5O[C@@H](C)[C@H](O)[C@@H](OC)[C@H]5O)c(OC)c4OC)[C@@H](C)O3)[C@@H]2O)C[C@@H]1OC` [Example P10], the IC50 stood at 0.031 nM in test [1]; 0.004 nM in test [2]; 0.03 nM in [3]; 0.029 nM in test [4]; 0.025 nM in [5]; 0.005 nM in test [6]. For the same compound, the figures for the IC50 in test [7] and in test [8] were 0.004 nM and 0.003 nM, respectively.
Turning to `CCN[C@H]1CO[C@@H](O[C@@H]2C(O)[C@H](NO[C@H]3C[C@H](O)[C@H](SC(=O)c4c(C)c(I)c(O[C@@H]5O[C@@H](C)[C@H](O)[C@@H](OC)[C@H]5O)c(OC)c4OC)[C@@H](C)O3)[C@@H](C)O[C@H]2O[C@H]2C#C/C=C\C#C[C@]3(O)CC(=O)C(NC(=O)OC)=C2/C3=C\CSSC(C)(C)CCC(=O)NCCCC[C@H](N)C(=O)O)C[C@@H]1OC` (stereo in doubt) [Example P43], the IC50 in [1] came out at 1.23 nM; in test [2], 4.9 nM; in test [3], 3.18 nM; in test [4], 9.01 nM; in test [5], 6.4 nM; in [6], 2.85 nM. For the same compound, the values for the IC50 in test [7] and in [8] were 1.36 nM and 0.516 nM, respectively.
As for `CCN[C@H]1CO[C@@H](O[C@H]2[C@H](O[C@H]3C#C/C=C\C#C[C@]4(O)CC(=O)C(NC(=O)OC)=C3/C4=C\CSSC(C)(C)CC(=O)NN)O[C@H](C)[C@@H](NO[C@H]3C[C@H](O)[C@H](SC(=O)c4c(C)c(I)c(O[C@@H]5O[C@@H](C)[C@H](O)[C@@H](OC)[C@H]5O)c(OC)c4OC)[C@@H](C)O3)[C@@H]2O)C[C@@H]1OC` [Example P7], the IC50 in test [1] was 0.046 nM; in test [2], 1.22 nM; in [3], 0.075 nM; in test [4], more than 90 nM; in test [5], 1.03 nM; in [6], 0.161 nM. Besides, the IC50 in [7] worked out at 0.124 nM; in test [8], 0.152 nM.
Regarding `CCN[C@H]1CO[C@@H](O[C@H]2[C@H](O[C@H]3C#C/C=C\C#C[C@]4(O)CC(=O)C(NC(=O)OC)=C3/C4=C\CSSc3ccccn3)O[C@H](C)[C@@H](NO[C@H]3C[C@H](O)[C@H](SC(=O)c4c(C)c(I)c(O[C@@H]5O[C@@H](C)[C@H](O)[C@@H](OC)[C@H]5O)c(OC)c4OC)[C@@H](C)O3)[C@@H]2O)C[C@@H]1OC` [Example P4], the IC50 was found to be 0.086 nM in test [1]; 0.036 nM in test [2]; 0.094 nM in test [3]; 0.184 nM in test [4]; 0.033 nM in [5]; 0.056 nM in test [6]. Besides, the IC50 in [7] was determined as 0.017 nM; in test [8], 0.011 nM.
As for `CCN[C@H]1CO[C@@H](O[C@H]2[C@H](O[C@H]3C#C/C=C\C#C[C@]4(O)CC(=O)C(NC(=O)OC)=C3/C4=C\CSSC(C)(C)C(=O)O)O[C@H](C)[C@@H](NO[C@H]3C[C@H](O)[C@H](SC(=O)c4c(C)c(I)c(O[C@@H]5O[C@@H](C)[C@H](O)[C@@H](OC)[C@H]5O)c(OC)c4OC)[C@@H](C)O3)[C@@H]2O)C[C@@H]1OC` [Example P12], the IC50 was determined as 0.64 nM in [1]; 0.102 nM in test [2]; 0.687 nM in test [3]; 0.245 nM in test [4]; 4.16 nM in test [5]; 0.033 nM in test [6]. In addition, the IC50 in test [7] is 0.04 nM; in test [8] it was 0.005 nM.
As for `CCN[C@H]1CO[C@@H](O[C@@H]2C(O)[C@H](NO[C@H]3C[C@H](O)[C@H](SC(=O)c4c(C)c(I)c(O[C@@H]5O[C@@H](C)[C@H](O)[C@@H](OC)[C@H]5O)c(OC)c4OC)[C@@H](C)O3)[C@@H](C)O[C@H]2O[C@H]2C#C/C=C\C#C[C@]3(O)CC(=O)C(NC(=O)OC)=C2/C3=C\CSSc2ncccc2C(=O)O)C[C@@H]1OC` (stereo in doubt) [Example P46], the IC50 was 0.544 nM in [1]; 0.046 nM in test [2]; 0.77 nM in [3]; 0.176 nM in [4]; 2.83 nM in [5]; 0.039 nM in test [6]. Also, the IC50 was found to be 0.025 nM in test [7] and 0.02 nM in test [8].
